Assay results from patent US20230041563A1, “N-(1,3,4-OXADIAZOL-2-YL)ARYLCARBOXAMIDES OR SALTS THEREOF, PREPARATION METHODS, HERBICIDAL COMPOSITIONS AND USES THEREOF” (priority 2018, published 2023).

System: weeds
Assay: Actual control effects and combined effects of mixtures of active ingredients (i) and (ii), stem-leaf treatment, Gowing method
Assay type: in vivo
Conditions: 20 days

In the case of CCSc1c(C(F)(F)F)ccc(C(=O)Nc2nnc(C)o2)c1F [Compound 1-4], the “Control effect of (i) alone at corresponding dose” value (“Control effect of (i) alone” for short) (Cyperus difformis, (i) 0.3 g a.i./mu) is reported as 4.1%, the “Control effect of (i) alone” value (Cyperus difformis, (i) 1 g a.i./mu) is reported as 6.3% and the “Control effect of (i) alone” value (Cyperus difformis, (i) 1.5 g a.i./mu) is reported as 9.2%. The “Control effect of (i) alone” value (Cyperus difformis, (i) 3 g a.i./mu) was 15.2%, the “Control effect of (i) alone” value (Cyperus difformis, (i) 6 g a.i./mu) was 25.6% and the “Control effect of (i) alone” value (Cyperus difformis, (i) 9 g a.i./mu) was 32.1%. For the same molecule, the “Control effect of (i) alone” value (Echinochloa phyllopogon, (i) 0.6 g a.i./mu) was 20.5%, the “Control effect of (i) alone” value (Echinochloa phyllopogon, (i) 0.7 g a.i./mu) was 25.1% and the “Control effect of (i) alone” value (Echinochloa phyllopogon, (i) 0.75 g a.i./mu) was 30.3%. For the same molecule, the “Control effect of (i) alone” value (Echinochloa phyllopogon, (i) 1 g a.i./mu) was 36.6%, the “Control effect of (i) alone” value (Echinochloa phyllopogon, (i) 1.5 g a.i./mu) was 41.5% and the “Control effect of (i) alone” value (Echinochloa phyllopogon, (i) 1.6 g a.i./mu) was 45.3%. For the same molecule, the “Control effect of (i) alone” value (Echinochloa phyllopogon, (i) 3 g a.i./mu) was 60.2%, the “Control effect of (i) alone” value (Leptochloa chinensis, (i) 3 g a.i./mu) was 18.6% and the “Control effect of (i) alone” value (Leptochloa chinensis, (i) 15 g a.i./mu) was 45.6%. For the same molecule, the “Control effect of (i) alone” value (Monochoria vaginalis, (i) 0.8 g a.i./mu) was 5.8%, the “Control effect of (i) alone” value (Monochoria vaginalis, (i) 1 g a.i./mu) was 6.2% and the “Control effect of (i) alone” value (Monochoria vaginalis, (i) 1.8 g a.i./mu) was 8.6%. For the same molecule, the “Control effect of (i) alone” value (Monochoria vaginalis, (i) 2.4 g a.i./mu) was 10.2%, the “Control effect of (i) alone” value (Monochoria vaginalis, (i) 3 g a.i./mu) was 12.7% and the “Control effect of (i) alone” value (Monochoria vaginalis, (i) 3.5 g a.i./mu) was 13.3%. The “Control effect of (i) alone” value (Monochoria vaginalis, (i) 5 g a.i./mu) was 19.6%, the “Control effect of (i) alone” value (Monochoria vaginalis, (i) 6 g a.i./mu) was 28.6% and the “Control effect of (i) alone” value (Monochoria vaginalis, (i) 10 g a.i./mu) was 31.7%. For the same molecule, the “Control effect of (i) alone” value (Monochoria vaginalis, (i) 15 g a.i./mu) was 40.5%, the “Control effect of (i) alone” value (Sagittaria trifolia L., (i) 0.75 g a.i./mu) was 16.3% and the “Control effect of (i) alone” value (Sagittaria trifolia L., (i) 3 g a.i./mu) was 60.3%.
